Measurements as given in patent US20260232767A1, “INTERLEUKIN-23 RECEPTOR ANTAGONIST PEPTIDES FOR USE IN THE TREATMENT OF PSORIASIS” (Janssen Pharmaceutica NV, priority 2023, published 2026).

Test system: subjects with moderate-to-severe plaque psoriasis
Assay: Safety, adverse events, Example 2 through Week 56
Type: in vivo, human
Source text: The LTE safety analysis was based on randomized participants in Example who entered the present long-term extension study and received at least one dose of study intervention (including a partial dose) during the study period.

[1] = 100 mg BID, Week 16 through Week 56
[2] = 100 mg BID, LTE Safety analysis set

CC(=O)NCCCC[C@@H]1NC(=O)[C@H](Cc2c[nH]c3c(C)cccc23)NC(=O)[C@H]([C@@H](C)O)NC(=O)[C@H](CC(N)=O)NC(=O)[C@@H](NC(C)=O)C(C)(C)SSC(C)(C)[C@@H](C(=O)N[C@@H](Cc2ccc(OCCN)cc2)C(=O)N[C@@H](Cc2ccc3ccccc3c2)C(=O)NC2(C(=O)N[C@@H](CCC(=O)O)C(=O)N[C@@H](CC(N)=O)C(=O)N[C@@H](Cc3cccnc3)C(=O)N(C)CC(N)=O)CCOCC2)NC1=O [IL-23 receptor antagonist peptide, Ac-[Pen]*-N-T-[W(7-Me)]-[Lys(Ac)]-[Pen]*-Phe[4-(2-aminoethoxy)]-[2-Nal]-[THP]-E-N-[3-Pal]-Sarc-NH2 (*[Pen]-[Pen]* formdisulfidebond)]
4: Skin and subcutaneous tissue disorders: number of subjects (50 mg QD, through Week 56)
0: Renal mass: number of subjects (50 mg QD, through Week 56) | Retinal vein occlusion: number of subjects (50 mg QD, through Week 56) | Rhinorrhoea: number of subjects (50 mg QD, through Week 56) | Skin laceration: number of subjects (50 mg QD, through Week 56) | Steatohepatitis: number of subjects (50 mg QD, through Week 56) | Subjects with AE leading to discontinuation: Abdominal discomfort (50 mg QD, through Week 56) | Subjects with AE leading to discontinuation: Alanine aminotransferase increased (50 mg QD, through Week 56) | Subjects with AE leading to discontinuation: Aspartate aminotransferase increased (50 mg QD, through Week 56) | Subjects with AE leading to discontinuation: Asthenia (50 mg QD, through Week 56) | Subjects with AE leading to discontinuation: Chills (50 mg QD, through Week 56) | Subjects with AE leading to discontinuation: Ear and labyrinth disorders (50 mg QD, through Week 56) | Subjects with AE leading to discontinuation: Gamma-glutamyltransferase increased (50 mg QD, through Week 56) | Subjects with AE leading to discontinuation: General disorders and administration site conditions (50 mg QD, through Week 56) | Subjects with AE leading to discontinuation: Headache (50 mg QD, through Week 56) | Subjects with AE leading to discontinuation: Insomnia (50 mg QD, through Week 56) | Subjects with AE leading to discontinuation: Investigations (50 mg QD, through Week 56) | Subjects with AE leading to discontinuation: Nervous system disorders (50 mg QD, through Week 56) | Subjects with AE leading to discontinuation: Proctalgia (50 mg QD, through Week 56) | Subjects with AE leading to discontinuation: Psoriasis (50 mg QD, through Week 56) | Subjects with AE leading to discontinuation: Psychiatric disorders (50 mg QD, through Week 56) | Subjects with AE leading to discontinuation: Skin and subcutaneous tissue disorders (50 mg QD, through Week 56) | Subjects with AE leading to discontinuation: Suicide attempt (50 mg QD, through Week 56) | Subjects with AE leading to discontinuation: Transaminases increased (50 mg QD, through Week 56) | Subjects with AE leading to discontinuation: Vertigo (50 mg QD, through Week 56) | Subjects with AE leading to discontinuation: Vomiting (50 mg QD, through Week 56) | Subjects with AE leading to discontinuation: Weight increased (50 mg QD, through Week 56) | Subjects with COVID-19 associated AE: SARS-CoV-2 test positive (50 mg QD, through Week 56) | Subjects with treatment-emergent serious AE: COVID-19 (50 mg QD, through Week 56) | Subjects with treatment-emergent serious AE: Cerebrovascular accident (50 mg QD, through Week 56) | Subjects with treatment-emergent serious AE: Diverticulitis (50 mg QD, through Week 56) | Subjects with treatment-emergent serious AE: Injury, poisoning and procedural complications (50 mg QD, through Week 56) | Subjects with treatment-emergent serious AE: Intervertebral disc protrusion (50 mg QD, through Week 56) | Subjects with treatment-emergent serious AE: Ligament injury (50 mg QD, through Week 56) | Subjects with treatment-emergent serious AE: Neoplasms benign, malignant and unspecified (incl cysts and polyps) (50 mg QD, through Week 56) | Subjects with treatment-emergent serious AE: Nervous system disorders (50 mg QD, through Week 56) | Subjects with treatment-emergent serious AE: Psychiatric disorders (50 mg QD, through Week 56) | Subjects with treatment-emergent serious AE: Respiratory, thoracic and mediastinal disorders (50 mg QD, through Week 56) | Subjects with treatment-emergent serious AE: Suicide attempt (50 mg QD, through Week 56) | Subjects with treatment-emergent serious AE: Tonsillar hypertrophy (50 mg QD, through Week 56) | Subjects with treatment-emergent serious AE: Uterine leiomyoma (50 mg QD, through Week 56) | Subjects with treatment-emergent serious AE: Ventricular dysfunction (50 mg QD, through Week 56) | Suicide attempt: number of subjects (50 mg QD, through Week 56) | Sunburn: number of subjects (50 mg QD, through Week 56) | Thrombocytopenia: number of subjects (50 mg QD, through Week 56) | Thrombocytosis: number of subjects (50 mg QD, through Week 56) | Tonsillar hypertrophy: number of subjects (50 mg QD, through Week 56) | Tooth fracture: number of subjects (50 mg QD, through Week 56) | Type 2 diabetes mellitus: number of subjects (50 mg QD, through Week 56) | Urinary tract disorder: number of subjects (50 mg QD, through Week 56) | Uterine leiomyoma: number of subjects (50 mg QD, through Week 56) | Ventricular dysfunction: number of subjects (50 mg QD, through Week 56) | Vertigo: number of subjects (50 mg QD, through Week 56) | Vitamin D deficiency: number of subjects (50 mg QD, through Week 56) | Number of subjects with treatment-emergent AE: Cholelithiasis [1] | Number of subjects with treatment-emergent AE: Ear and labyrinth disorders [1] | Number of subjects with treatment-emergent AE: Endocrine disorders [1] | Number of subjects with treatment-emergent AE: Eye disorders [1] | Number of subjects with treatment-emergent AE: Eyelid skin dryness [1] | Number of subjects with treatment-emergent AE: Goiter [1] | Number of subjects with treatment-emergent AE: Hepatobiliary disorders [1] | Number of subjects with treatment-emergent AE: Hypertransaminasemia [1] | Number of subjects with treatment-emergent AE: Insomnia [1] | Number of subjects with treatment-emergent AE: Ocular cyst [1] | Number of subjects with treatment-emergent AE: Psychiatric disorders [1] | Number of subjects with treatment-emergent AE: Retinal vein occlusion [1] | Number of subjects with treatment-emergent AE: Vertigo [1] | Subjects who discontinued study agent because of 1 or more adverse events [2] | Subjects with 1 or more Serious Infections and infestations [2] | Subjects with adverse event: Arthralgia [2] | Subjects with adverse event: Bronchitis [2] | Subjects with adverse event: Headache [2] | Subjects with adverse event: Meniscus injury [2] | Subjects with adverse event: Sinusitis [2] | Subjects with adverse event: Vomiting [2] | Subjects with serious adverse event: Cerebrovascular accident [2] | Subjects with serious adverse event: Coronary artery disease [2] | Subjects with serious adverse event: Diverticulitis [2] | Subjects with serious adverse event: Foot deformity [2] | Subjects with serious adverse event: Intervertebral disc protrusion [2] | Subjects with serious adverse event: Ligament injury [2] | Subjects with serious adverse event: Non-cardiac chest pain [2] | Subjects with serious adverse event: Tonsillar hypertrophy [2] | Subjects with serious adverse event: Ventricular dysfunction [2] | Subjects with 1 or more treatment-emergent adverse events leading to discontinuation of study agent (100 mg BID, Week 16-56) | Subjects with AE leading to discontinuation: Alanine aminotransferase increased (100 mg BID, Week 16-56) | Subjects with AE leading to discontinuation: Aspartate aminotransferase increased (100 mg BID, Week 16-56) | Subjects with AE leading to discontinuation: Asthenia (100 mg BID, Week 16-56) | Subjects with AE leading to discontinuation: Chills (100 mg BID, Week 16-56) | Subjects with AE leading to discontinuation: Ear and labyrinth disorders (100 mg BID, Week 16-56) | Subjects with AE leading to discontinuation: Gamma-glutamyltransferase increased (100 mg BID, Week 16-56) | Subjects with AE leading to discontinuation: Gastrointestinal disorders (100 mg BID, Week 16-56) | Subjects with AE leading to discontinuation: General disorders and administration site conditions (100 mg BID, Week 16-56) | Subjects with AE leading to discontinuation: Headache (100 mg BID, Week 16-56) | Subjects with AE leading to discontinuation: Insomnia (100 mg BID, Week 16-56) | Subjects with AE leading to discontinuation: Investigations (100 mg BID, Week 16-56) | Subjects with AE leading to discontinuation: Nervous system disorders (100 mg BID, Week 16-56) | Subjects with AE leading to discontinuation: Proctalgia (100 mg BID, Week 16-56) | Subjects with AE leading to discontinuation: Psoriasis (100 mg BID, Week 16-56) | Subjects with AE leading to discontinuation: Psychiatric disorders (100 mg BID, Week 16-56) | Subjects with AE leading to discontinuation: Skin and subcutaneous tissue disorders (100 mg BID, Week 16-56) | Subjects with AE leading to discontinuation: Vertigo (100 mg BID, Week 16-56) | Subjects with AE leading to discontinuation: Vomiting (100 mg BID, Week 16-56) | Subjects with treatment-emergent AE: Arthralgia (100 mg BID, Week 16-56) | Subjects with treatment-emergent AE: Bronchitis (100 mg BID, Week 16-56) | Subjects with treatment-emergent AE: Gastrointestinal disorders (100 mg BID, Week 16-56)
(4.7%): Respiratory, thoracic and mediastinal disorders: % of subjects (50 mg QD, through Week 56)
(2.6%): Subjects with treatment-emergent AE: Immune system disorders (%) [1] | Subjects with treatment-emergent AE: Seasonal allergy (%) [1]
(2.3%): Seasonal allergy: % of subjects (50 mg QD, through Week 56) | Skin papilloma: % of subjects (50 mg QD, through Week 56) | Social circumstances: % of subjects (50 mg QD, through Week 56) | Vascular disorders: % of subjects (50 mg QD, through Week 56)
1: Seasonal allergy: number of subjects (50 mg QD, through Week 56) | Skin papilloma: number of subjects (50 mg QD, through Week 56) | Social circumstances: number of subjects (50 mg QD, through Week 56) | Vascular disorders: number of subjects (50 mg QD, through Week 56) | Number of subjects with treatment-emergent AE: Immune system disorders [1] | Number of subjects with treatment-emergent AE: Seasonal allergy [1]
(9.3%): Skin and subcutaneous tissue disorders: % of subjects (50 mg QD, through Week 56)
2: Respiratory, thoracic and mediastinal disorders: number of subjects (50 mg QD, through Week 56)
